# Literature values in patent publication US7718658B2 (priority 2004, dated 2010).
# Tested on: neuropathic pain
# Conditions: in vivo
smiles,measurement,value
NCC1(CC(=O)O)CCCCC1 [Gabapentin],share of patients in whom it works,60%
